Earlier results, collected in Sander's compilation of Henry's law constants (doi:10.1093/bja/45.3.294).

Experiments:
[1] = Henry solubility constant Hcp at 298.15 K (mol/(m3 Pa)); details: reference: Allott et al. (1973); cited value
[2] = Henry solubility constant Hcp at 310 K (mol/(m3 Pa)); details: reference: Allott et al. (1973); cited value

| Structure (SMILES) | Henry solubility constant Hcp [1] | Henry solubility constant Hcp at 310 K [2] |
| --- | --- | --- |
| FC(Br)C(F)(F)F (stereo not given) [1-bromo-1,2,2,2-tetrafluoroethane] | 0.00017 |  |
| FC(F)(F)C(Cl)Br (stereo not given) [1-bromo-1-chloro-2,2,2-trifluoroethane] | 0.00053 |  |
| FC(F)OC(Cl)C(F)(F)F (stereo not given) [1-chloro-2,2,2-trifluoroethyl difluoromethyl ether] |  | 0.00024 |
| COC(F)(F)C(Cl)Cl [2,2-dichloro-1,1-difluoro-1-methoxyethane] | 0.003 |  |
| FC(F)OC(F)(F)C(F)Cl (stereo not given) [2-chloro-1,1,2-trifluoroethyl difluoromethyl ether] |  | 0.0003 |
| C=COCC(F)(F)F [(2,2,2-trifluoroethoxy)-ethene] | 0.00055 |  |
| CCCl [chloroethane] | 0.00073 |  |
| C1CC1 [cyclopropane] | 0.00011 |  |
| CCOCC [diethyl ether] | 0.0096 |  |
| [N-]=[N+]=O [dinitrogen monoxide] | 0.00025 |  |
| C=COC=C [divinyl ether] |  | 0.00054 |
| C=C [ethene] | 4.6e-05 |  |
| [Kr] [krypton] | 2.5e-05 |  |
| ClC=C(Cl)Cl [trichloroethene] | 0.0011 |  |
| [Xe] [xenon] | 4.5e-05 |  |
